Where two headings read alike, the source gives them in different places.

The values below come from patent US10441562B2, “Aromatic farnesyl compound and application thereof” (INSTITUTE OF MICROBIOLOGY, CHINESE ACADEMY OF SCIENCES, priority 2015, dated 2019).

What all share (type): biochemical
Assay [1] has as its target T1, dipeptidyl peptidase-4 (Homo sapiens, UniProt P27487).
T1 construct: purchased
The assay is described as follows: dipeptidyl peptidase-4 inhibitory activity test in vitro (DPP-4 inhibitor screening kit). An excerpt: The above compounds are detected by DPP-4 inhibitor screening kit.

The target of assay [2] is T2, protein tyrosine phosphatase 1B (PTP-1B) (Homo sapiens, UniProt P18031).
T2 sequence (P18031 1-435): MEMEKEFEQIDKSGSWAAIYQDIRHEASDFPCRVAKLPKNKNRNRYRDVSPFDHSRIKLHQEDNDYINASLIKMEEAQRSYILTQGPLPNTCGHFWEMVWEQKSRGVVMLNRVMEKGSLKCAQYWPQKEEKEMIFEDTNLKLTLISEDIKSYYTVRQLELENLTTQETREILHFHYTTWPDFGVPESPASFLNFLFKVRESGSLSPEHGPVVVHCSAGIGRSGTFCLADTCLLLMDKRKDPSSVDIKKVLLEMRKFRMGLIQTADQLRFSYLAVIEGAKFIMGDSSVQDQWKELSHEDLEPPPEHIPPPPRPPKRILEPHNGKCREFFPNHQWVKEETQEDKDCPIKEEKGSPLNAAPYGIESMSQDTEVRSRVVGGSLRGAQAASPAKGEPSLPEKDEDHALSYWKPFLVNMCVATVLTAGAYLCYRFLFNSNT
Put plainly: PTP-1B inhibitory activity test in vitro. How it is done: Experimental procedure: the following reagents are added into 96-well plates in sequence and the mixture ratios of different groups are as followings: Test group: 50 μL compound solution+50 μL 170 μg/mL PTP-1B solution […] Blank group: 50 μL buffer solution+50 μL 170 μg/mL PTP-1B solution Background group: 50 μL compound solution+50 μL buffer solution After adding the reagents, the 96-well plate is […] for 10 min at room temperature to make the compound and the enzyme react completely. Add 50 μL 1 mM pNPP solution which is used as substrate and incubate the mixed solution at 37 °C for 30 min. Then add 50 μL 3M NaOH into each well of the plate to stop the reaction and the optical density is detected at […].

For assay [3], the target named is T3, HMG-CoA reductase (Homo sapiens, UniProt P04035).
T3 sequence (P04035 426-888 limits assumed): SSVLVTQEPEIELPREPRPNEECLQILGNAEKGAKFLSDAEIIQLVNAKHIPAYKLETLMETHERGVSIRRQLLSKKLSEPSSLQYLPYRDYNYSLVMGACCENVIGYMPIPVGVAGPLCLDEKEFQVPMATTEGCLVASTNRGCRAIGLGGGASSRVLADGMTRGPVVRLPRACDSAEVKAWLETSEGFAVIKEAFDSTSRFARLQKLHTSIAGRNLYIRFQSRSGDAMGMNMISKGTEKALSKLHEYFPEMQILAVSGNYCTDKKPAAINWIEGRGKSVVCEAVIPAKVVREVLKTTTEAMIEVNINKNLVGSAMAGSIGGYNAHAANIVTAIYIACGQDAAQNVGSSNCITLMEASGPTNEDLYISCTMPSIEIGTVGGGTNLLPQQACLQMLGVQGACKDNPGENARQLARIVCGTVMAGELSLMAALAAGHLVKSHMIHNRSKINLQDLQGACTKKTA
The assay is described as follows: HMG-CoA reductase inhibitory activity test in vitro. The method, then:
Add 25 μL HMG-CoA reductase water solution (0.2 U/mL), 25 μL NADPH water solution (0.2 U/mL) and 24 μL phosphate buffer (50 mM, pH 7.0) into 1 μL different concentration of the above test solution. The mixed solution is standed for 10 min at room temperature, and then 25 μL HMG-CoA is added into the mixed solution. After the solution is incubated at 37∞ for 30 min and centrifuged at 5000 rpm for 5 minutes, 80 uL supernatant is added into 96-well plates and the absorbance is detected at 550 nm.
(§1) Repeat each of the above experiment groups for 3 times, and then average the results.

The target in assay [4] is aldose reductase (Homo sapiens, UniProt P15121). The assay is described as follows: aldose reductase inhibitory activity test in vitro. The method, then: Experimental procedure: the following reagents are added into 96-well plates in sequence and the mixture ratios of different groups are as followings:
Test group: 10 μL compound solution+25 μL (0.1 mM) NADPH solution+25 μL PBS buffer solution+15 μL aldose reductase diluent
Blank group: 25 μL (0.1 mM) NADPH solution+35 μL PBS buffer solution+15 μL aldose reductase diluent
Background group: 25 μL (0.1 mM) NADPH solution+60 μL PBS buffer solution+15 μL aldose reductase diluent
After adding the reagents, the 96-well plate is standed for 10 min at room temperature to make the compound and the enzyme react completely. Add 25 μL 10 mM D, L glyceraldehyde solution which is used as substrate into the groups except for background group, and incubate the solution at 37 °C for 30 min. Then detect the optical density of each well at 340 nm.

Assay [5] deals with T4, α-glucosidase (Saccharomyces cerevisiae, UniProt P53341).
T4 construct: purchased Sigma Corporation G5003
The assay is described as follows: α-glucosidase inhibitory activity test in vitro. The method, then: Add 25 μL α-glucosidase water solution (0.2 U/mL) and 175 μL phosphate buffer (50 mM, pH 7.0) into 25 μL different concentration of the above test solutions. The mixed solution is standed for 10 min at room temperature, and then 25 μL 4-nitrophenyl-α-D-glucopyranoside water solution (2.5 mM) is added into the mixed solution. After the solution is incubated at 37 °C for 30 min and centrifuged at 5000 rpm for 5 minutes, 150 uL supernatant is added into 96-well plates and the absorbance is detected at 405 nm.
Blank group: the test solution is replaced by 25 μL phosphate buffer (50 mM, pH 7.0); blank control group: the test solution is replaced by 25 μL phosphate buffer (50 mM, pH 7.0), meanwhile α-glucosidase water solution is replaced by 25 μL phosphate buffer (50 mM, pH 7.0); sample control group: α-glucosidase water solution is replaced by 25 μL phosphate buffer (50 mM, pH 7.0).
as §1
IC50=[CL(IH−50)+CH(50−IL)]/(IH−IL) CL: low concentration value; CH: high concentration value; IH: inhibition rate in high concentration; IL: inhibition rate in low concentration

The mark [6] stands for this setting: read-out: α-glucosidase inhibitory activity (IC50).

T1 sequence (P27487 whole entry, species assumed): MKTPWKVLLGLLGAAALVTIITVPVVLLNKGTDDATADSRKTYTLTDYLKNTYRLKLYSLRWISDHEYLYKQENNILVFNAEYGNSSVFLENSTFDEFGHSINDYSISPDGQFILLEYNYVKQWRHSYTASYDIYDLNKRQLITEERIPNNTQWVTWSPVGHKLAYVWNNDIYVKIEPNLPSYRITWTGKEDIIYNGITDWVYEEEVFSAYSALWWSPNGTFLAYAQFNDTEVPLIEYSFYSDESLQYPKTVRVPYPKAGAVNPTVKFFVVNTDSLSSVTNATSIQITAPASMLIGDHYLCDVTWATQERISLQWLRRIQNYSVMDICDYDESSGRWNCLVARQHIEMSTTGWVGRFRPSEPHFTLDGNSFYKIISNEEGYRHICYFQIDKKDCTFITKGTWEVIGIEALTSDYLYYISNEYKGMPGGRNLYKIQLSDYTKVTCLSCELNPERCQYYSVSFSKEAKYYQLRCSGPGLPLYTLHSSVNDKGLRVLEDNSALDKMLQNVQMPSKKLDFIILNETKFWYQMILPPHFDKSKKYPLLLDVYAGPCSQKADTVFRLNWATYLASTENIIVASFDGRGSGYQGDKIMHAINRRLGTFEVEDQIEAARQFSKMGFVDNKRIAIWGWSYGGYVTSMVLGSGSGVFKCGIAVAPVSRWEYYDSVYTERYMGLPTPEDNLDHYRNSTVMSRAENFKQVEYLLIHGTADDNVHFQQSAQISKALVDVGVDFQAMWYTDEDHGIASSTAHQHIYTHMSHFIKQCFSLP
T4 sequence (P53341 whole entry): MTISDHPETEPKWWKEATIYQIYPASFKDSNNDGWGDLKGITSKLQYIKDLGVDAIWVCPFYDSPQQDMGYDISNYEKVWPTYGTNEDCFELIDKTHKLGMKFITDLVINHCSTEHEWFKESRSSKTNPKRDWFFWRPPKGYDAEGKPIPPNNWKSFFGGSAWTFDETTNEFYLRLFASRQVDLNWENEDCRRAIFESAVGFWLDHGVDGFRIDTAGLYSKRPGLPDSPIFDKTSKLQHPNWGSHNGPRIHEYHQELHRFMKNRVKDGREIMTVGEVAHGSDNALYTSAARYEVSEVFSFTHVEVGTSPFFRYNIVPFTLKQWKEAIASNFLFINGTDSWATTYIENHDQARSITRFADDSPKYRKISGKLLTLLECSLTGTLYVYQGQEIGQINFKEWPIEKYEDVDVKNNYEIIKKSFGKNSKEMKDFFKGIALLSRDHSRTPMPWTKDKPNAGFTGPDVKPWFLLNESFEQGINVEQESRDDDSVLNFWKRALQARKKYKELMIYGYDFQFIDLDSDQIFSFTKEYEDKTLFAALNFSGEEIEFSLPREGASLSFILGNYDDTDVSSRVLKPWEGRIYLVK

Regarding `CC(C)=CCC/C(C)=C/CCC1=C[C@@H](c2c(F)cccc2F)OC1=O` [S29, (S,E)-5-(2,6-difluorophenyl)-3-(4,8-dimethylnona-3,7-dien-1-yl)furan-2(5H)-one], the IC50 in assay [1] worked out at 23.5 µM; in assay [2] it was 4.4 µM; in assay [3], 16.8 µM; in assay [4] it was 33.5 µM; in assay [5] (setting [6]), 3.95 µM.
For `CC(C)=CCC/C(C)=C/CCC1=C[C@H](c2ccccc2O)OC1=O` [S4, (R,E)-3-(4,8-dimethylnona-3,7-dien-1-yl)-5-(2-hydroxyphenyl)furan-2 (5-H)-one] the same measures were 21.2 µM, 11.1 µM, 4.7 µM, 23.5 µM and 0.21 µM.
As for `CC(C)=CCC/C(C)=C/CCC1=C[C@@H](c2ccc3ccccc3c2)OC1=O` [S17, (S,E)-3-(4,8-dimethylnona-3,7-dien-1-yl)-5-(naphthalen-2-yl)furan-2 (5H)-one], the IC50 in assay [1] worked out at 13.6 µM; in assay [2] it was 10.1 µM; in assay [3] it was 42.2 µM; in assay [4], 20.2 µM; in assay [5] (setting [6]), 6.32 µM.
For `CC(C)=CCC/C(C)=C/CCC1=C[C@@H](c2ccc(C(C)(C)C)cc2)OC1=O` [S24, (S,E)-5-(4-(tert-butyl)phenyl)-3-(4,8-dimethylnona-3,7-dien-1-yl)furan-2 (5H)-one] the same measures were 15.8 µM, 17.6 µM, 15.2 µM, 1.2 µM and 0.23 µM.
The matching figures for `CC(C)=CCC/C(C)=C/CCC1=C[C@@H](c2ccc(C(C)C)cc2)OC1=O` [S23, (S,E)-3-(4,8-dimethylnona-3,7-dien-1-yl)-5-(4-isopropylphenyl)furan-2(5H)-one]: 8.8 µM, 9.6 µM, 87.2 µM, 93.1 µM and 49.2 µM.
For `COc1ccc(OC)c([C@H]2C=C(CC/C=C(\C)CCC=C(C)C)C(=O)O2)c1` [S12, (R,E)-5-(2,5-dimethoxyphenyl)-3-(4,8-dimethylnona-3,7-dien-1-yl)furan-2(5H)-one] the same measures were 8.8 µM, 11.8 µM, 4.4 µM, 26.1 µM and 11.5 µM.
`COc1ccc([C@@H]2C=C(CC/C=C(\C)CCC=C(C)C)C(=O)O2)cc1` [S25, (S,E)-3-(4,8-dimethylnona-3,7-dien-1-yl)-5-(4-methoxyphenyl)furan-2(5H)-one]: the IC50 in assay [1] is 18.5 µM; in assay [2] it was 16.5 µM; in assay [3] it was 1.5 µM; in assay [4], 101 µM; in assay [5] (setting [6]), 52.1 µM.
In the case of `CC(C)=CCC/C(C)=C/CCC1=C[C@H](c2ccc(C)cc2)OC1=O` [S6, (R,E)-3-(4,8-dimethylnona-3,7-dien-1-yl)-5-(p-tolyl)furan-2(5H)-one], the IC50 in assay [1] was found to be 31.5 µM; in assay [2], 5.6 µM; in assay [3], 8.1 µM; in assay [4] it was 63.2 µM; in assay [5] (setting [6]), 1.06 µM.
For `COCOc1ccccc1[C@@H]1C=C(CC/C=C(\C)CCC=C(C)C)C(=O)O1` [S18, (S,E)-3-(4,8-dimethylnona-3,7-dien-1-yl)-5-(2-(methoxymethoxy)phenyl) furan-2(5H)-one] the same measures were 14.4 µM, 8.2 µM, 6.2 µM, 40.2 µM and 8.2 µM.
For `CC(C)=CCC/C(C)=C/CC/C(=C/Cc1cc(O)ccc1O)C(=O)O` [S34, (2Z,5E)-2-(2-(2,5-dihydroxyphenyl)ethylidene)-6,10-dimethylundeca-5,9-dienoic acid] the same measures were 15.2 µM, 12.9 µM, 12.6 µM, 8.7 µM and 0.98 µM.
For `CC(C)=CCC/C(C)=C/CCC1=C[C@@H](c2ccccc2[N+](=O)[O-])OC1=O` [S20, (S,E)-3-(4,8-dimethylnona-3,7-dien-1-yl)-5-(2-nitrophenyl)furan-2(5H)-one] the same measures were 20.8 µM, 4.7 µM, 13.8 µM, 9.5 µM and 0.21 µM.
`CC(C)=CCC/C(C)=C/CCC1=C[C@@H](c2ccccc2O)OC1=O` [S19, (S,E)-3-(4,8-dimethylnona-3,7-dien-1-yl)-5-(2-hydroxyphenyl)furan-2(5H)-one]: the 50% inhibitory concentration (IC50) turned out to be 20.2 µM in assay [1]; 11.5 µM in assay [2]; 5.5 µM in assay [3]; 25.4 µM in assay [4]; 0.52 µM in assay [5] (setting [6]).
The matching figures for `CC(C)=CCC/C(C)=C/CCC1=C[C@H](c2ccccc2[N+](=O)[O-])OC1=O` [S5, (R,E)-3-(4,8-dimethylnona-3,7-dien-1-yl)-5-(2-nitrophenyl)furan-2(5H)-one]: 20.9 µM, 5.3 µM, 18.9 µM, 8.5 µM and 0.09 µM.
Consider `CC(C)=CCC/C(C)=C/CCC(CC(=O)c1cc(O)ccc1O)C(=O)O` (stereo not shown) [S36, (E)-2-(2-(2,5-dihydroxyphenyl)-2-oxoethyl)-6,10-dimethylundeca-5,9-dienoic acid], for which the half-maximal inhibitory concentration (IC50) is 21.8 µM in assay [1]; 11.4 µM in assay [2]; 4.2 µM in assay [3]; 6.3 µM in assay [4]; 3.2 µM in assay [5].
As for `CC(C)=CCC/C(C)=C/CCC1=C[C@H](c2cc(F)c(F)c(F)c2)OC1=O` [S15, (R,E)-3-(4,8-dimethylnona-3,7-dien-1-yl)-5-(3,4,5-trifluorophenyl)furan-2(5H)-one], the IC50 in assay [1] was determined as 12.1 µM; in assay [2] it was 25.4 µM; in assay [3], 38.2 µM; in assay [4] it was 54.9 µM; in assay [5] (setting [6]), 1.27 µM.
For `CC(C)c1c(C(=O)Nc2ccccc2)c(-c2ccccc2)c(-c2ccc(F)cc2)n1CC[C@@H](O)C[C@@H](O)CC(=O)O` [atorvastatin, reference compound], in assay [5], half-maximal inhibition (IC50) required 273 µM.

A word on the IC50: it is the concentration that gives 50% inhibition.
